Experimental data as given in ChEMBL document CHEMBL1154409, “Contribution of the CmeABC efflux pump to macrolide and tetracycline resistance in Campylobacter jejuni” (2007).
≈ marks a conversion by molar mass, not a printed value. Peptide text beside a SMILES is read from it. * marks the point of attachment. βNA = c1ccc2cc(N*)ccc2c1

What was measured:
Campylobacter jejuni [1] = experiment: Inactivation of CmeABC efflux pump in Campylobacter jejuni 25-19 assessed as change in erythromycin MIC by agar dilution method
[2] = biological target: T1, CmeA (Campylobacter jejuni) (UniProt Q8RTE5); experiment: Inactivation of CmeABC efflux pump in Campylobacter jejuni 25-19 assessed as change in clarithromycin MIC by agar dilution method
T1 sequence (whole entry): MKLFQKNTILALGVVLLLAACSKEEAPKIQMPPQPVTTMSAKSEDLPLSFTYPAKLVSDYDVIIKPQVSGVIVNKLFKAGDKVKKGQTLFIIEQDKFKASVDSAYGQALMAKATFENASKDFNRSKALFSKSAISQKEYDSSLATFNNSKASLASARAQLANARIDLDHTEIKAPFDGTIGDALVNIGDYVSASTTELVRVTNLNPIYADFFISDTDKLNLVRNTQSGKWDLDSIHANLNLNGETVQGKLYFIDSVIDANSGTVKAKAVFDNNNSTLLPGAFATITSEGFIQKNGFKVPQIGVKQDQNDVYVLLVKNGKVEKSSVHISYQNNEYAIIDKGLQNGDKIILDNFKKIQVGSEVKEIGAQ

Campylobacter jejuni [3] = experiment: Ratio of MIC for Campylobacter jejuni 001B-40 carrying A2075G mutation in 23S rRNA to MIC for Campylobacter jejuni 001B-40 cmeB::kanamycin-resistant mutant; format: functional
Campylobacter jejuni [4] = experiment: Antibacterial activity against Campylobacter jejuni UA709 cmeB::kanamycin-resistant mutant by agar dilution method; format: functional
Campylobacter jejuni [5] = experiment: Antibacterial activity against Campylobacter jejuni 001B-40 cmeB::kanamycin-resistant mutant by agar dilution method; format: functional
Campylobacter jejuni [6] = experiment: Antibacterial activity against Campylobacter jejuni 001B-22 carrying A2075G mutation in 23S rRNA by agar dilution method; format: functional
Campylobacter jejuni [7] = experiment: Antibacterial activity against Campylobacter jejuni 001B-40 carrying A2075G mutation in 23S rRNA by agar dilution method; format: functional
Campylobacter jejuni [8] = experiment: Antibacterial activity against Campylobacter jejuni 001B-22 cmeB::kanamycin-resistant mutant by agar dilution method; format: functional
Campylobacter jejuni [9] = experiment: Antibacterial activity against Campylobacter jejuni UA709 carrying A2074C mutation in 23S rRNA by agar dilution method; format: functional
Campylobacter jejuni [10] = experiment: Ratio of MIC for Campylobacter jejuni 001B-22 carrying A2075G mutation in 23S rRNA to MIC for Campylobacter jejuni 001B-22 cmeB::kanamycin-resistant mutant; format: functional
Campylobacter jejuni [11] = experiment: Antibacterial activity against Campylobacter jejuni 81-176 cmeB: kanamycin-resistant mutant carrying tet(O)+ gene; format: functional
Campylobacter jejuni [12] = experiment: Antibacterial activity against Campylobacter jejuni 23-51 cme:: Kanamycin-resistant mutant assessed by agar dilution method; format: functional
Escherichia coli [13] = experiment: Antibacterial activity against Escherichia coli EW1b containing pDOB47; format: functional
Campylobacter jejuni [14] = experiment: Antibacterial activity against Campylobacter jejuni 15-21 cmeB:: Kanamycin-resistant mutant by agar dilution method; format: functional
Escherichia coli [15] = experiment: Antibacterial activity against wild type Escherichia coli DH5alpha by agar dilution assay; format: functional
Campylobacter jejuni [16] = experiment: Antibacterial activity against Campylobacter jejuni 25-19 by agar dilution method; format: functional
Campylobacter jejuni [17] = experiment: Antibacterial activity against Campylobacter jejuni 15-21 by […]; format: functional
Campylobacter jejuni [18] = experiment: Antibacterial activity against Campylobacter jejuni 25-19 cmeB:: Kanamycin-resistant mutant by agar dilution method; format: functional
Campylobacter jejuni [19] = experiment: Antibacterial activity against Campylobacter jejuni 81-176 carrying tet(O)+ gene by agar dilution method; format: functional
Campylobacter jejuni [20] = experiment: Antibacterial activity against Campylobacter jejuni 25-45 by agar dilution method; format: functional
Campylobacter jejuni [21] = experiment: Antibacterial activity against Campylobacter jejuni 23-51 assessed as inhibition of CmeABC efflux pump by agar dilution method; format: functional
Campylobacter jejuni [22] = experiment: Antibacterial activity against Campylobacter jejuni 25-45 cmeB:: Kanamycin-resistant mutant by agar dilution method; format: functional

SMILES	fold change (FC) (Campylobacter jejuni [1])	MIC (Campylobacter jejuni [4]) [µg/mL]	MIC (Campylobacter jejuni [5]) [µg/mL]	MIC (Campylobacter jejuni [6]) [µg/mL]	MIC (Campylobacter jejuni [7]) [µg/mL]	MIC (Campylobacter jejuni [8]) [µg/mL]	MIC (Campylobacter jejuni [9]) [µg/mL]	fold change (FC) (Campylobacter jejuni [10])	other results
N=C(N)NCCC[C@H](NC(=O)[C@@H](N)Cc1ccccc1)C(=O)Nc1ccc2ccccc2c1 (H-Phe-Arg-βNA)	3	–	–	–	–	–	–	–	fold change (FC) [2]: 2
CC[C@H]1OC(=O)[C@H](C)[C@@H](O[C@H]2C[C@@](C)(OC)[C@@H](O)[C@H](C)O2)[C@H](C)[C@@H](O[C@@H]2O[C@H](C)C[C@H](N(C)C)[C@H]2O)[C@](C)(OC)C[C@@H](C)C(=O)[C@H](C)[C@@H](O)[C@]1(C)O [CLARITHROMYCIN]	2	128 (≈ 171 µM)	8 (≈ 10.7 µM)	64 (≈ 85.6 µM)	265 (≈ 354 µM)	4 (≈ 5.35 µM)	128 (≈ 171 µM)	16	fold change (FC) (Campylobacter jejuni [3]): >32
CC[C@H]1OC(=O)[C@H](C)[C@@H](O[C@H]2C[C@@](C)(OC)[C@@H](O)[C@H](C)O2)[C@H](C)[C@@H](O[C@@H]2O[C@H](C)C[C@H](N(C)C)[C@H]2O)[C@](C)(O)C[C@@H](C)C(=O)[C@H](C)[C@@H](O)[C@]1(C)O [ERYTHROMYCIN]	–	1020 (≈ 1400 µM)	8 (≈ 10.9 µM)	256 (≈ 349 µM)	> 1020	4 (≈ 5.45 µM)	1020 (≈ 1400 µM)	64	–
CN(C)[C@@H]1C(O)=C(C(N)=O)C(=O)[C@@]2(O)C(O)=C3C(=O)c4c(O)cccc4[C@@](C)(O)[C@H]3C[C@@H]12 [TETRACYCLINE]	–	–	–	–	–	–	–	–	MIC (Campylobacter jejuni [11]): 2 µg/mL (≈ 4.5 µM); MIC (Campylobacter jejuni [12]): 8 µg/mL (≈ 18 µM); MIC (Escherichia coli [13]): 16 µg/mL (≈ 36 µM); MIC (Campylobacter jejuni [14]): 4 µg/mL (≈ 9 µM); MIC (Escherichia coli [15]): 64 µg/mL (≈ 144 µM); MIC (Campylobacter jejuni [16]): 64 µg/mL (≈ 144 µM); MIC (Campylobacter jejuni [17]): 128 µg/mL (≈ 288 µM); MIC (Campylobacter jejuni [18]): 4 µg/mL (≈ 9 µM); MIC (Campylobacter jejuni [19]): 32 µg/mL (≈ 72 µM); MIC (Campylobacter jejuni [20]): 256 µg/mL (≈ 576 µM); MIC (Campylobacter jejuni [21]): 512 µg/mL (≈ 1150 µM); MIC (Campylobacter jejuni [22]): 8 µg/mL (≈ 18 µM)
